# Reference: article PMC11911254 (Pharmacological Reports, 2025)
# Assay: Concentration of paracetamol and its metabolites in plasma, CSF and brain cortex by LC-MS/MS
# Conditions: for Concentration in CSF / Concentration in brain / Concentration in plasma: E19 rats; for concentration at 30 min: both, Sprague Dawley, rat, intraperitoneal, P4 rats
# Procedure: Drug injection protocol is illustrated in Fig. 1.
# Male and female postnatal P4 pups and 7–8 week-old non-pregnant females were used. […] In combination therapy experiments, this dose was accompanied by one of the 7 other drugs (Table 1). For all experiments, animals were terminally anesthetized 30 min after the drug injection using inhaled isoflurane (IsoFlo 100% w/w, Abbott Laboratories), and blood, CSF, and brain samples were collected. Blood was collected directly from the right cardiac ventricle, CSF from the cisterna magna, and cortical brain samples from the frontal/parietal lobes dorsal to the lateral ventricles as described previously.
# Pregnant E19 dams were anesthetized with ip urethane injection (25% w/v urethane, Sigma, 1 ml/100 g body weight) and placed on a 39 °C heating pad in the supine position. An endotracheal catheter was inserted to maintain a clear airway. Catheters were inserted into the femoral vein and artery for iv drug administration and arterial blood sampling respectively. The cannula was flushed with 0.5 ml of heparinized saline (Hospira Inc, 5,000 units/ml) after drug administration and following each arterial blood sample. Following drug administration to the dams, fetuses were exteriorized and serially collected starting at 30 min post-maternal injection. […] At collection, the viability of each fetus was assessed (presence of a heartbeat, the colour of the umbilical vessels) and blood, CSF, and brain samples were taken along with a time-matched maternal blood sample from the femoral artery. At the end of the experiment, a final maternal blood sample was taken directly from the left cardiac ventricle, and CSF and brain samples were collected.
# This method has been described previously for valproate, lamotrigine, and olanzapine and was applied in the present study. Simultaneous quantification was performed for all compounds in plasma, brain, and CSF samples following the addition of respective stable isotope-labeled internal standards.
# Linear response range was determined in untreated control rat plasma for each compound at 0.1, 1, 10, 50, 100, 200, 400, and 800 µg/ml.
# [1] = maternal iv paracetamol 15 mg/kg + cimetidine 11 mg/kg (PARA+CIM, n=10), median (IQR)
# [2] = maternal iv paracetamol 15 mg/kg + digoxin 0.03 mg/kg (PARA+DIG, n=9), median (IQR)
# [3] = maternal iv paracetamol 15 mg/kg + lamotrigine 6 mg/kg (PARA+LTG, n=10), median (IQR)
# [4] = maternal iv paracetamol 15 mg/kg + olanzapine 0.15 mg/kg (PARA+OLZ, n=10), median (IQR), all values if <3 detected
# [5] = maternal iv paracetamol 15 mg/kg + valproate 30 mg/kg (PARA+VPA, n=10), median (IQR), all values if <3 detected
# [6] = maternal iv paracetamol 15 mg/kg monotherapy (PARA, n=10), median (IQR)
smiles,measurement,setting,value
"CC(=O)Nc1ccc(O)cc1 [Paracetamol, reference compound]",Concentration in CSF,[1],7.2 (1.7) µg/ml
same,Concentration in brain,[1],10.2 (5.7) µg/ml
same,Concentration in plasma,[1],7.6 (2.5) µg/ml
same,Concentration in CSF,[2],6.5 (2.2) µg/ml
same,Concentration in brain,[2],6.6 (3.0) µg/ml
same,Concentration in plasma,[2],5.8 (2.2) µg/ml
same,Concentration in CSF,[3],6.3 (3.4) µg/ml
same,Concentration in brain,[3],8 (2.6) µg/ml
same,Concentration in plasma,[3],6.2 (3.7) µg/ml
same,Concentration in plasma,"maternal iv paracetamol 15 mg/kg + olanzapine 0.15 mg/kg (PARA+OLZ, n=10), median (IQR)",4.1 (3.7) µg/ml
same,Concentration in CSF,[4],4.7 (4.0) µg/ml
same,Concentration in brain,[4],8.7 (3.9) µg/ml
same,Concentration in plasma,"maternal iv paracetamol 15 mg/kg + olanzapine 0.15 mg/kg (PARA+OLZ, n=10), median (IQR), listed as paracetamol",4.1 µg/mL
same,Concentration in CSF,"maternal iv paracetamol 15 mg/kg + valproate 30 mg/kg (PARA+VPA, n=10), median (IQR)",5.9 (2.1) µg/ml
same,Concentration in brain,[5],6.9 (2.1) µg/ml
same,Concentration in plasma,[5],6.0 (2.5) µg/ml
same,Concentration in CSF,[6],8.0 (3.2) µg/ml
same,Concentration in brain,[6],9.3 (5.0) µg/ml
same,Concentration in plasma,[6],7.5 (2.9) µg/ml
same,Concentration in plasma,"maternal iv paracetamol 15 mg/kg monotherapy (PARA, n=10), median (IQR), listed as paracetamol",7.5 µg/mL
same,change in plasma concentration following combination therapy,"adults, any of the drugs investigated, Kruskal-Wallis test",no significant changes
same,concentration at 30 min,"CSF, 15 mg/kg, Concentration in CSF, 30 min after ip paracetamol 15 mg/kg monotherapy (PARA, n=4), median (IQR)",7000 ng/mL
same,concentration at 30 min,"CSF, Concentration in CSF, 30 min after ip paracetamol 15 mg/kg + cimetidine 11 mg/kg (PARA+CIM, n=4), median (IQR)",6200 ng/mL
same,concentration at 30 min,"CSF, Concentration in CSF, 30 min after ip paracetamol 15 mg/kg + digoxin 0.03 mg/kg (PARA+DIG, n=4), median (IQR)",6300 ng/mL
same,concentration at 30 min,"CSF, Concentration in CSF, 30 min after ip paracetamol 15 mg/kg + fluvoxamine 1.5 mg/kg (PARA+FLX, n=4), median (IQR)",9400 ng/mL
same,concentration at 30 min,"CSF, Concentration in CSF, 30 min after ip paracetamol 15 mg/kg + lamotrigine 6 mg/kg (PARA+LTG, n=5), median (IQR)",7200 ng/mL
same,concentration at 30 min,"CSF, Concentration in CSF, 30 min after ip paracetamol 15 mg/kg + lithium 3.2 mg/kg (PARA+Li, n=4), median (IQR)",4700 ng/mL
same,concentration at 30 min,"CSF, Concentration in CSF, 30 min after ip paracetamol 15 mg/kg + olanzapine 0.15 mg/kg (PARA+OLZ, n=4), median (IQR)",5300 ng/mL
same,concentration at 30 min,"CSF, Concentration in CSF, 30 min after ip paracetamol 15 mg/kg + valproate 30 mg/kg (PARA+VPA, n=4), median (IQR)",6400 ng/mL
same,concentration at 30 min,"brain cortex, 15 mg/kg, Concentration in brain, 30 min after ip paracetamol 15 mg/kg monotherapy (PARA, n=4), median (IQR)",8900 ng/mL
same,concentration at 30 min,"brain cortex, Concentration in brain, 30 min after ip paracetamol 15 mg/kg + cimetidine 11 mg/kg (PARA+CIM, n=4), median (IQR)",9000 ng/mL
same,concentration at 30 min,"brain cortex, Concentration in brain, 30 min after ip paracetamol 15 mg/kg + digoxin 0.03 mg/kg (PARA+DIG, n=4), median (IQR)",10300 ng/mL
same,concentration at 30 min,"brain cortex, Concentration in brain, 30 min after ip paracetamol 15 mg/kg + fluvoxamine 1.5 mg/kg (PARA+FLX, n=4), median (IQR) or individual values",8700 ng/mL
same,concentration at 30 min,"brain cortex, Concentration in brain, 30 min after ip paracetamol 15 mg/kg + lamotrigine 6 mg/kg (PARA+LTG, n=5), median (IQR)",9900 ng/mL
same,concentration at 30 min,"brain cortex, Concentration in brain, 30 min after ip paracetamol 15 mg/kg + lithium 3.2 mg/kg (PARA+Li, n=4), median (IQR)",7600 ng/mL
same,concentration at 30 min,"brain cortex, Concentration in brain, 30 min after ip paracetamol 15 mg/kg + olanzapine 0.15 mg/kg (PARA+OLZ, n=4), median (IQR)",6900 ng/mL
